Test results reported in article PMC4703387, “Identification of the Calmodulin-Binding Domains of Fas Death Receptor” (PLoS ONE, 2016).
Where no end group is shown, it is not given here.

Columns and labels:
[1] = target: T1, Ca^2+/CaM (Homo sapiens, UniProt P0DP23); assay: NMR titration (2D 1H-15N HSQC) of 15N-labeled Ca^2+/CaM with FasDD peptides; assay type: binding; details: 1H-15N HSQC, 15N-Ca^2+/CaM 100–150 μM, 35°C, pH 7.0
T1 construct: made in house
Description: (§1) NMR data were collected at 35°C on a Bruker Avance II (700 MHz ^1H) spectrometer equipped with a cryogenic triple-resonance probe, processed with NMRPIPE [35] and analyzed with NMRVIEW [36] or CCPN Analysis. […] For signal assignments of the complexes, ^13C-, ^15N-, or ^13C-/^15N-labeled Ca^2+/CaM at ~400–500 μM was mixed with unlabeled Fas-Pep1 (in 100% DMSO-d6) or Fas-Pep2 at 1.5:1 peptide:Ca^2+/CaM. […] The backbone atom resonances of Ca^2+/CaM complexes with Fas-Pep1 and Fas-Pep2 were assigned using HNCA, HN(CO)CA, HNCACB, HNCO, HN(CO)CACB and ^15N-edited NOESY-HSQC and TOCSY-HSQC experiments. These experiments have been also collected on ^15N-, or ^13C-/^15N-labeled Fas-Pep2 in complex with unlabeled Ca^2+/CaM to confirm the α-helical character of Fas-Pep2 when bound to Ca^2+/CaM. The chemical shifts of Ca^2+/CaM-bound Fas-Pep2 were used to predict its order parameters and secondary structure content in TALOS+.[38] Combined ^1H-^15N chemical shift changes were calculated as ΔδHN = [(ΔδH)^2+(ΔδN/5)^2]^1/2, where ΔδH and ΔδN are the ^1H and ^15N chemical shift changes, respectively. Kd values were calculated by non-linear least-square fitting algorithm in Origin software (OriginLab, Northampton, MA) using the equation: ΔδHN=ΔδHN^max((Kd+L0+P0)−((Kd+L0+P0)^2−4*P0*L0)^0.5)/(2*P0) where ΔδHN^max is the chemical shift change between complex and free protein, L0 total concentration of ligand, and P0 total concentration of protein.
To gain insights into the molecular elements of Ca^2+/CaM–FasDD interaction and to identify the interaction interface, we have utilized NMR chemical shift perturbation (CSP) as detected in ^1H-^15N heteronuclear single quantum coherence (HSQC) spectra. These experiments not only allow for identification of residues involved in binding but can also provide information on the induced conformational changes within proteins. 2D ^1H-^15N HSQC data obtained for a uniformly ^15N-labeled Ca^2+/CaM upon titration with unlabeled Fas-Pep1 are shown in Fig 5. Addition of substoichiometric amounts of Fas-Pep1 (0.5:1 peptide:Ca^2+/CaM) led to a decrease in intensity for a significant number of ^1H-^15N resonances accompanied by appearance of several new signals, consistent with a slow exchange on the NMR scale between the free and bound forms of Ca^2+/CaM. A steady decrease in intensity for the original ^1H-^15N signals and increase in intensity of the new signals was clearly observed with further addition of Fas-Pep1. Spectral changes ceased upon completion of peptide titration at 1.5:1 Fas-Pep1:Ca^2+/CaM ratio when only the new set of signals was present (Fig 5). […]
Only residues 214–227 have been detected in the x-ray structure of Ca^2+/CaM bound to FasDD(214–238); no electron density has been detected for residues 228–238.[40] […]

[2] = target: T1, Ca^2+/CaM; assay: Circular dichroism (CD) spectroscopy; assay type: physicochemical; details: 25°C, 10 mM HEPES (pH 7), 50 mM KCl, 2.5 mM CaCl2
Description: CD spectra were acquired on a Jasco J815 spectropolarimeter at 25°C from 260 to 185 nm. Scanning rate was set to 50 nm/min. Loading concentrations were ~16–20 μM for free peptides, 18 μM for free Ca^2+/CaM and 10 μM for the complexes in a buffer containing 10 mM HEPES (pH 7), 50 mM KCl, and 2.5 mM CaCl2. The background signal from the buffer solution was subtracted from each spectrum. Ca^2+/CaM complexes with peptides were run on gel filtration column (as described above) to ensure high purity and homogeneity prior to collection of the CD spectra.

[3] = target: T1, Ca^2+/CaM; assay: NMR (HSQC, 3D 15N-edited HSQC-NOESY, TALOS+) of 15N-/13C-labeled Fas-Pep2; assay type: physicochemical
Description: as §1
Far-UV CD spectra of Ca^2+/CaM, Fas-Pep1, Fas-Pep2 and their complexes have been obtained to determine whether formation of the complexes induce any major changes in the secondary structures of the peptides and/or Ca^2+/CaM protein. […] The CD spectra of the complexes are similar to those of Ca^2+/CaM with features distinctive of an α-helical type. Relatively minor changes are observed in the CD signal of Ca^2+/CaM upon binding to FasDD peptides. […] Induction of the α-helical character of Fas-Pep2 upon binding to Ca^2+/CaM has been confirmed by NMR spectroscopy. […]

VQDTAEQKVQLLRNWHQLHGKKEAYDTLIKDLKKANLC [Fas-Pep2]
NMR exchange regime with Ca^2+/CaM [1]: slow exchange
change in CD signal at 208 and 222 nm of Ca^2+/CaM on peptide binding ([2]; complex 10 μM): An increase in the intensity of the CD signal at 208 and 222 nm
secondary structure of free peptide/protein ([2]; far-UV CD, ~16–20 μM peptide, 18 μM Ca^2+/CaM): random coil
conformation when bound to Ca^2+/CaM (NOESY) ([3]; 3D 15N-edited HSQC-NOESY): adopts an α-helical conformation upon binding to CaM
conformation of free peptide (NMR) ([3]; 15N-Fas-Pep2, 1H-15N HSQC, 35°C, pH 7.0): lack of ordered structure
conformation when bound to Ca^2+/CaM (chemical shift index, TALOS+) ([3]; prediction from measured chemical shifts): adopts an α-helical conformation upon binding to Ca^2+/CaM
